Test results: ChEMBL document CHEMBL1909046, “DrugMatrix in vitro pharmacology data”

What was measured:
[1] = biological target: T1, Amine oxidase [flavin-containing] A (Homo sapiens, UniProt P21397); assay: DRUGMATRIX: Monoamine Oxidase MAO-A enzyme inhibition (substrate: Kynuramine); parameters: species or system BTI-TN-5B1-4; conditions: Not Active = under 50% inhibition at 10 µM
T1 sequence (P21397 whole entry): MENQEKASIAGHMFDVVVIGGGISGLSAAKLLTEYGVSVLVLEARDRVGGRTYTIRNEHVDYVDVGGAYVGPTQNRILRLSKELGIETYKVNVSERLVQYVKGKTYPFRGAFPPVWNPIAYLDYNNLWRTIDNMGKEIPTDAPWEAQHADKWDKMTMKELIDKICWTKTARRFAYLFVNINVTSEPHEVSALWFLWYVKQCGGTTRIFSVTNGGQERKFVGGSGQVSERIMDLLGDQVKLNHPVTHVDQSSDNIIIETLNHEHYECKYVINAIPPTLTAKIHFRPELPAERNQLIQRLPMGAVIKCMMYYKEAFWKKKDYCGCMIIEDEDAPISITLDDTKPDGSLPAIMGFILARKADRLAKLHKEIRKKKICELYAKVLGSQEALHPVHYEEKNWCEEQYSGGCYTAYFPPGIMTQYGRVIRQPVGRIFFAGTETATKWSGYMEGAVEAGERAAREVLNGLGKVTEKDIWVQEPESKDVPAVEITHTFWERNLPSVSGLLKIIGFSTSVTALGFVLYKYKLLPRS

Androgen receptor = biological target: T2, Androgen receptor (Rattus norvegicus, UniProt P15207); further: in other assays of this panel Not Active means under 50% inhibition at 10 µM
T2 sequence (P15207 whole entry): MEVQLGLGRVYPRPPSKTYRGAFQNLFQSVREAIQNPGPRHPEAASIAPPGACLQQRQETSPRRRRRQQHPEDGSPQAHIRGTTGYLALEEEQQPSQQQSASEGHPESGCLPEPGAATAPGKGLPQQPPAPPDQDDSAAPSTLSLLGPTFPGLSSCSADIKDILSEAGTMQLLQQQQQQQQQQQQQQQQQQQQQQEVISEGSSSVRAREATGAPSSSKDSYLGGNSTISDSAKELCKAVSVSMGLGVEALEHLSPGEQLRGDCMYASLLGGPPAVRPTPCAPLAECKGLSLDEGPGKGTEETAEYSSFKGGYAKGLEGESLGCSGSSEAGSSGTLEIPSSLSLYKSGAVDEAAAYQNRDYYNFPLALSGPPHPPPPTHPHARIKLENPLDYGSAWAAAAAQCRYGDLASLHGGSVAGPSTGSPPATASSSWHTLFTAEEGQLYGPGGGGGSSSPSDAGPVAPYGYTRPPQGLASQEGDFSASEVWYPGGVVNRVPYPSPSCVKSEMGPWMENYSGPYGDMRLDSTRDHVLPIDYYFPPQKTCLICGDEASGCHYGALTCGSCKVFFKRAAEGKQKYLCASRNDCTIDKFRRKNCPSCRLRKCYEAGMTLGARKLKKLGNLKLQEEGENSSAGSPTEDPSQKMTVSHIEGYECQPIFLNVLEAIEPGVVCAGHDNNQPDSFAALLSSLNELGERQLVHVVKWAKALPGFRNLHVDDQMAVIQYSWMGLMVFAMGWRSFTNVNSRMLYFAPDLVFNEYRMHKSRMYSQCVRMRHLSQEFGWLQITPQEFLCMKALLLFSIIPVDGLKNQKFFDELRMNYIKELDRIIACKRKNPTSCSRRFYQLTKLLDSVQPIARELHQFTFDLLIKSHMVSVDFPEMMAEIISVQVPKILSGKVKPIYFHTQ

[2] = DRUGMATRIX: Phorbol Ester radioligand binding (ligand: [3H] PDBu); type: cell membranes, Mus musculus, ICR, Brain, Membrane; conditions: Not Active = under 50% inhibition at 10 µM

Row | Molecule | IC50 ([1]; bti-tn-5b1-4) | IC50 (Androgen receptor) | IC50 [2] | Ki [2] | Ki ([1]; bti-tn-5b1-4) | Ki (Androgen receptor) | IC50 ([1]; read-out: IC50) [µM]
1 | Nc1ccc(C(=O)O)c(O)c1 [AMINOSALICYLIC ACID] | Not Active | Not Active | Not Active | Not Active | – | – | –
2 | CC(=O)[C@]1(O)Cc2c(O)c3c(c(O)c2[C@@H](O[C@H]2C[C@H](N)[C@H](O)[C@H](C)O2)C1)C(=O)c1ccccc1C3=O [IDARUBICIN] | Not Active | Not Active | Not Active | Not Active | – | – | –
3 | C=C(Cl)Cl [1,1-DICHLOROETHENE] | Not Active | Not Active | Not Active | Not Active | – | – | –
4 | COC(=O)C[C@](O)(CCC(C)(C)O)C(=O)O[C@@H]1C(OC)=C[C@]23CCCN2CCc2cc4c(cc2[C@H]13)OCO4 [HARRINGTONINE] | Not Active | Not Active | Not Active | Not Active | – | – | –
5 | CHROMIC CHLORIDE | Not Active | Not Active | Not Active | Not Active | Not Active | Not Active | –
6 | CC(C)Cn1cnc2c(N)nc3ccccc3c21 [IMIQUIMOD] | Not Active | Not Active | Not Active | Not Active | – | – | –
7 | OC[C@H]1OC2C3[C@@H](CO)OC(O[C@H]4[C@H](O)[C@@H](O)[C@@H](O[C@H]5[C@H](O)[C@@H](O)[C@@H](O[C@H]6[C@H](O)[C@@H](O)[C@@H](O[C@H]7[C@H](O)[C@@H](O)[C@@H](O[C@H]8[C@H](O)[C@@H](O)[C@@H](O[C@H]9[C@H](O)[C@@H](O)C(OC1[C@H](O)[C@H]2O)O[C@@H]9CO)O[C@@H]8CO)O[C@@H]7CO)O[C@@H]6CO)O[C@@H]5CO)O[C@@H]4CO)[C@H](O)[C@H]3O | Not Active | Not Active | Not Active | Not Active | – | – | –
8 | COc1cc(/C=C/C(=O)O)ccc1O [FERULATE] | Not Active | Not Active | Not Active | Not Active | – | – | –
9 | POVIDONE | Not Active | Not Active | Not Active | Not Active | Not Active | Not Active | –
10 | Nc1ccc(Cc2ccc(N)cc2)cc1 | Not Active | – | Not Active | Not Active | – | – | –
11 | C[C@]12CC[C@@H](O)C[C@@H]1CC[C@@H]1[C@@H]2CC[C@]2(C)C(=O)CC[C@@H]12 [ANDROSTERONE] | Not Active | Not Active | Not Active | Not Active | – | – | –
12 | O=C(O)c1ccccc1 [BENZOIC ACID] | Not Active | – | Not Active | Not Active | – | – | –
13 | C[C@H]1C[C@H]2[C@@H]3CCC4=CC(=O)C=C[C@]4(C)[C@@]3(F)[C@@H](O)C[C@]2(C)[C@@]1(O)C(=O)CO [BETAMETHASONE] | Not Active | – | Not Active | Not Active | – | – | –
14 | NS(=O)(=O)c1cc(C(=O)O)c(NCc2ccco2)cc1Cl [FUROSEMIDE] | Not Active | – | Not Active | Not Active | – | – | –
15 | O=C(Nc1ccc(Cl)c(Cl)c1)c1cc(Cl)cc(Cl)c1O [3,3',4',5-TETRACHLOROSALICYLANILIDE] | Not Active | – | Not Active | Not Active | – | – | –
16 | ClC1=C(Cl)[C@]2(Cl)[C@@H]3[C@@H]4C[C@@H]([C@H]5O[C@@H]45)[C@@H]3[C@@]1(Cl)C2(Cl)Cl [DIELDRIN] | Not Active | – | Not Active | Not Active | – | – | –
17 | CCN(CCO)CCCC(C)Nc1ccnc2cc(Cl)ccc12 (configuration not stated) [HYDROXYCHLOROQUINE] | Not Active | – | Not Active | Not Active | – | – | –
18 | c1ccc2sc(SSc3nc4ccccc4s3)nc2c1 [BENZOTHIAZYL DISULFIDE] | Not Active | – | Not Active | Not Active | – | – | –

Row | Molecule | IC50 ([1]; bti-tn-5b1-4) | IC50 (Androgen receptor) | IC50 [2] | Ki [2] | Ki ([1]; bti-tn-5b1-4) | Ki (Androgen receptor) | IC50 ([1]; read-out: IC50) [µM]
19 | CC(C)Cc1ccc([C@H](C)C(=O)O)cc1 [DEXIBUPROFEN] | Not Active | – | Not Active | Not Active | – | – | –
20 | Cl.NC[C@H]1CC[C@H](C(=O)Oc2ccc(CCC(=O)O)cc2)CC1 [CETRAXATE HYDROCHLORIDE] | Not Active | – | Not Active | Not Active | – | – | –
21 | Nc1nc(N)c2nc(CNc3ccc(C(=O)N[C@@H](CCC(=O)O)C(=O)O)cc3)cnc2n1 [AMINOPTERIN] | Not Active | – | Not Active | Not Active | – | – | –
22 | NC(=O)NC(=O)Cc1ccccc1 [PHENACEMIDE] | Not Active | – | Not Active | Not Active | – | – | –
23 | O=C1c2ccccc2C(=O)C1c1ccccc1 [PHENINDIONE] | Not Active | – | Not Active | Not Active | – | – | –
24 | CC(C)NCC(O)COc1ccc(CC(N)=O)cc1 (configuration not stated) [ATENOLOL] | Not Active | – | Not Active | Not Active | – | – | –
25 | OC[C@H]1O[C@@H]2O[C@H]3[C@H](O)[C@@H](O)[C@@H](O[C@H]4[C@H](O)[C@@H](O)[C@@H](O[C@H]5[C@H](O)[C@@H](O)[C@@H](O[C@H]6[C@H](O)[C@@H](O)[C@@H](O[C@H]7[C@H](O)[C@@H](O)[C@@H](O[C@H]8[C@H](O)[C@@H](O)[C@@H](O[C@H]1[C@H](O)[C@H]2O)O[C@@H]8CO)O[C@@H]7CO)O[C@@H]6CO)O[C@@H]5CO)O[C@@H]4CO)O[C@@H]3CO [BETADEX] | Not Active | – | Not Active | Not Active | – | – | –
26 | COc1ccc(Cl)cc1C(=O)NCCc1ccc(S(=O)(=O)NC(=O)NC2CCCCC2)cc1 [GLYBURIDE] | Not Active | – | Not Active | Not Active | – | – | –
27 | CCN1CCN(C(=O)N[C@@H](C(=O)N[C@@H]2C(=O)N3[C@@H]2SC(C)(C)[C@@H]3C(=O)O)c2ccccc2)C(=O)C1=O [PIPERACILLIN] | Not Active | – | Not Active | Not Active | – | – | –
28 | CNC[C@H](O)c1ccc(O)c(O)c1 [EPINEPHRINE] | Not Active | – | Not Active | Not Active | – | – | –
29 | CCC1(c2ccccc2)C(=O)NC(=O)NC1=O [PHENOBARBITAL] | Not Active | – | Not Active | Not Active | – | – | –
30 | CC1(COc2ccc(CC3SC(=O)NC3=O)cc2)CCCCC1 (configuration not stated) [CIGLITAZONE] | – | – | Not Active | Not Active | – | – | 29.2
31 | OC[C@H]1O[C@@H]2O[C@H]3[C@H](O)[C@@H](O)[C@@H](O[C@H]4[C@H](O)[C@@H](O)[C@@H](O[C@H]5[C@H](O)[C@@H](O)[C@@H](O[C@H]6[C@H](O)[C@@H](O)[C@@H](O[C@H]7[C@H](O)[C@@H](O)[C@@H](O[C@H]1[C@H](O)[C@H]2O)O[C@@H]7CO)O[C@@H]6CO)O[C@@H]5CO)O[C@@H]4CO)O[C@@H]3CO [ALFADEX] | Not Active | – | Not Active | Not Active | – | – | –
32 | Nc1nc(F)nc2c1ncn2[C@@H]1O[C@H](CO)[C@@H](O)[C@@H]1O [FLUDARABINE] | Not Active | – | Not Active | Not Active | – | – | –
33 | O=C(O)CO [GLYCOLIC ACID] | Not Active | – | Not Active | Not Active | – | – | –
34 | O=C(NCCN1CCOCC1)c1ccc(Cl)cc1 [MOCLOBEMIDE] | Not Active | – | Not Active | Not Active | – | – | –
35 | NC(N)=Nc1nc(CSCCC(N)=NS(N)(=O)=O)cs1 [FAMOTIDINE] | Not Active | – | Not Active | Not Active | – | – | –
36 | COc1ccc(C[C@H](N)C(=O)N[C@H]2[C@@H](O)[C@H](n3cnc4c(N(C)C)ncnc43)O[C@@H]2CO)cc1 [PUROMYCIN] | Not Active | – | Not Active | Not Active | – | – | –
